According to US12178801B1, “Stable psilocin salts, esters and conjugates and uses thereof” (LOBE SCIENCES LTD., priority 2022, dated 2024):
“And” between values parts separate entries of the source, which are not always exact repeats. Equal values may be shown once. “Also recorded” adds a separate entry of the source.

What was measured:
[1] = Stability studies on psilocin mucate capsule (appearance, HPLC assay and impurities, TM-022-0392); type: physicochemical; conditions: for Assay TM-22-0392 (% Label Claim): specification 90.0-110.0%
Protocol: Additional stability studies were performed on psilocin mucate (also known as psilocin mucic acid salt or conjugate or psilocin galactaric acid salt or conjugate) capsule.
Appearance was evaluated by viewing of the sample on a watchglass over a black and white background.
Assay conditions for Test/Method TM-022-0392 assessing stability and impurities were as follows: • Mobile phase: MPA: 945 mL water, 5 mL H3PO4 pH to 5.7 with NaOH; MPB: Acetonitrile • Diluent: 80:20 Water:MeOH • Standard: 0.4 mg/mL Psilocin Mucic RS in Diluent • Sample:0.4 mg/mL Psilocin Mucic AP in Diluent • HPLC Conditions are depicted in Table 3.
*Additional equilibration may be required System suit: RSD NMT 2.0% (5 injections), Tailing NMT 2.0, Plate count NLT 10000
Calculations were against a bracketing external standard.
Identity of psilocin mucate was verified by ultraviolet (UV) assessment, wherein the UV spectrum of the main peak in the standard matched the UV spectrum of the main peak in the sample and by retention time wherein the retention time ratio was 0.98-1.02.

healthy subjects = test: Phase one single-dose study of psilocin mucic acid conjugate capsules: MMSE and mood assessment by psychiatrist; conditions: single oral capsule 4.05 mg, equivalent to 2 mg psilocin
[2] = psilocin from psilocybin administration; cited from earlier work
[3] = psilocybin dose, equivalent to about 2 mg psilocin; cited from earlier work

## CN(C)CCc1c[nH]c2cccc(O)c12.O=C(O)[C@@H](O)[C@H](O)[C@H](O)[C@@H](O)C(=O)O [psilocin mucate]
[1]
  Time for which demonstrated to be stable: at least 7 months
[1]; capsule, 7 Months
  Appearance, Packaging: Labeled, amber glass bottle with white closure containing 15 partially filled white opaque capsules: Conforms
  Appearance, Product: White to light brown powder partially filling white opaque capsules: Conforms
  Total Impurities TM-22-0392: <0.05%
  Assay TM-22-0392 (% Label Claim): 101.7%
[1]; capsule, 7 Months, all impurities
  Impurities TM-22-0392, individual impurities: All <0.05%
[1]; capsule, Initial
  Appearance, Packaging: Labeled, amber glass bottle with white closure containing 15 partially filled white opaque capsules: Conforms
  Appearance, Product: White to light brown powder partially filling white opaque capsules: Conforms
  Total Impurities TM-22-0392: 0.08%
  Assay TM-22-0392 (% Label Claim): 100.8%
Healthy subjects; one statement per subject (01-10)
  FEELING STATUS: Less anxious, better mood, increase their appetite; also recorded: Feel little beet happier, better energy; also recorded: Feel calm, less thoughts, happier mood; also recorded: Euphoric, better mood, it helps with life stress; also recorded: Euphories, better mood, sleepy, feel time is slower; also recorded: Sleepy, better thoughts, less worried in general; also recorded: Did not feel change in mood but feeling cold; also recorded: More relaxed, want to drink sweet tea, better; also recorded: Better mood, feels hyper sexual; also recorded: Felt high mood, now they feel in good way, ,
Healthy subjects; one value per subject (01-10), scores expected below 25 with a hallucinogenic substance
  MMSE: 29 (2×) and 30 (3×) and 28 (3×) and 27 (2×)

## CN(C)CCc1c[nH]c2cccc(O)c12 [psilocin]
[2]
  Estimated dose-normalized bioavailability: 52.7%

## CN(C)CCc1c[nH]c2cccc(OP(=O)(O)O)c12 [psilocybin, Psilocybin]
[3]
  Lowest dose with reported hallucinogenic effects coupled with increased anxiety: 5 mg
